From US20220213074A1, “ABHD12 INHIBITORS AND METHODS OF MAKING AND USING SAME” (H. Lundbeck A/S, priority 2019, published 2022)

Target: T1, ABHD12 (Mus musculus, UniProt Q99LR1)
T1 construct: from tissue; host or cells: mouse brain (membrane fraction)
T1 sequence (Q99LR1 1-398): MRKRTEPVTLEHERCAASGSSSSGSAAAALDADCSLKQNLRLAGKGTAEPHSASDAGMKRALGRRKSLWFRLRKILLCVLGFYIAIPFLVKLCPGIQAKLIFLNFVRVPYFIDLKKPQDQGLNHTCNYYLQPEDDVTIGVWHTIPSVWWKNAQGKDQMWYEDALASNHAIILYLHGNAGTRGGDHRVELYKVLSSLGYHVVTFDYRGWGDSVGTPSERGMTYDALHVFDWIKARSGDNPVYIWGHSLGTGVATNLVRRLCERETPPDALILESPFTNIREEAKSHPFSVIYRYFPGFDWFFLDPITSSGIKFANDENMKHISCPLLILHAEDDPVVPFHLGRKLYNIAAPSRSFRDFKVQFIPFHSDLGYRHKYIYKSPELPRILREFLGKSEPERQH
Assay: In vitro competitive activity-based protein profiling (FP-Rhodamine probe, gel-based) in mouse brain membrane proteomes
Type: biochemical
Conditions: mouse brain membrane proteome, 30 min preincubation at 37° C.; for inhibition at 1 µM: 1 μM inhibitor; for inhibition at 10 µM: 10 μM inhibitor (stated in cell); for inhibition at 50 µM: 50 μM inhibitor (stated in cell)
Method: Compounds were tested to assess their ABHD12 activity using the following assay.
Mouse brain membrane proteomes (50 μL, 1.0 mg/mL total protein concentration) were preincubated with varying concentrations of inhibitors at 37° C. After 30 min, FP-Rhodamine probe (1.0 μL, 50 μM in DMSO) was added and the mixture was incubated for 30 min at room temperature. Reactions were quenched with SDS loading buffer (15 μL-4×) and proteins were resolved by SDS-PAGE gel (10% acrylamide). Following in-gel fluorescence imaging, enzyme activity was determined by measuring intensity of gel bands corresponding to ABHD12 using ImageJ software.

| inhibition at 1 µM [%] | IC50 [nM] | Structure (SMILES) | other results |
| --- | --- | --- | --- |
| ≥ 75 | 100 to 1000 | O=C(Nc1cccnc1)NC1CCN(c2nccc(Oc3ccc(OC(F)(F)F)c(Cl)c3)c2Cl)CC1 [Example 15, 1-(1-(3-Chloro-4-(3-chloro-4-(trifluoro-methoxy)phenoxy)pyridin-2-yl)piperidin-4-yl)-3-(pyridin-3-yl)urea] |  |
| ≥ 75 | 100 to 1000 | C#Cc1ccc(Oc2ccnc(N3CCC(NC(=O)Nc4cccnc4)CC3)c2Cl)c(Cl)c1 [Example 6, 1-(1-(3-Chloro-4-(2-chloro-4-ethynylphenoxy)pyridin-2-yl)piperidin-4-yl)-3-(pyridin-3-yl)urea] |  |
| ≥ 75 | 100 to 1000 | Cc1cc(OC(F)(F)F)ccc1Oc1ccnc(N2CCC(NC(=O)Nc3cccnc3)CC2)c1Cl [Example 16, 1-(1-(3-Chloro-4-(2-methyl-4-(trifluoro-methoxy)phenoxy)pyridin-2-yl)piperidin-4-yl)-3-(pyridin-3-yl)urea] |  |
| 25 to 50 |  | O=C(Nc1cccnc1)NC1CCN(c2nc(Oc3ccc(OC(F)(F)F)cc3Cl)ccc2Cl)CC1 [Example 24, 1-(1-(3-Chloro-6-(2-chloro-4-(trifluoro-methoxy)phenoxy)pyridin-2-yl)piperidin-4-yl)-3-(pyridin-3-yl)urea] |  |
| 50 to 75 |  | O=C(Nc1cccnc1)NC1CCN(c2nccc(Oc3cccc(OC(F)(F)F)c3)c2Cl)CC1 [Example 17, 1-(1-(3-Chloro-4-(3-(trifluoro-methoxy)phenoxy)pyridin-2-yl)piperidin-4-yl)-3-(pyridin-3-yl)urea] |  |
| ≥ 75 | 100 to 1000 | O=C(Nc1cccnc1)NC1CCN(c2ncccc2Oc2ccc(OC(F)(F)F)cc2Cl)CC1 [Example 23, 1-(1-(3-(2-Chloro-4-(trifluoro-methoxy)phenoxy)pyridin-2-yl)piperidin-4-yl)-3-(pyridin-3-yl) urea] |  |
| 0 to 25 |  | COc1ccnc(N2CCC(NC(=O)Nc3cccnc3)CC2)c1 [Example 18] |  |
|  |  | O=C(Nc1cccnc1)NC1CCN(c2nccc(C(F)(F)F)c2Cl)CC1 [Example 8, 1-(1-(3-Chloro-4-(trifluoro-methyl)pyridin-2-yl)piperidin-4-yl)-3-(pyridin-3-yl)urea] | inhibition at 10 µM: 50 to 75% |
|  |  | O=C(Nc1cccnc1)NC1CCN(c2ccc(Cl)cn2)CC1 [Example 11, 1-(1-(5-Chloropyridin-2-yl)piperidin-4-yl)-3-(pyridin-3-yl) urea] | inhibition at 50 µM: ≥ 75% |
|  |  | N#Cc1ccnc(N2CCC(NC(=O)Nc3cccnc3)CC2)c1 [Example 12, 1-(1-(4-Cyanopyridin-2-yl)piperidin-4-yl)-3-(pyridin-3-yl) urea] | inhibition at 50 µM: 25 to 50% |
| ≥ 75 | 100 to 1000 | O=C(Nc1cccnc1)NC1CCN(c2nccc(Oc3ccc(OC(F)(F)F)c(F)c3)c2Cl)CC1 [Example 14, 1-(1-(3-Chloro-4-(3-fluoro-4-(trifluoro-methoxy)phenoxy)pyridin-2-yl)piperidin-4-yl)-3-(pyridin-3-yl)urea] |  |
|  |  | O=C(Nc1cccnc1)NC1CCN(c2cccc(C(F)(F)F)n2)CC1 [Example 1, 1-(Pyridin-3-yl)-3-(1-(6-(trifluoromethyl)pyridin-2-yl)piperidin-4-yl)urea] | inhibition at 10 µM: 50 to 75% |
| 0 to 25 |  | O=C(Nc1cccnc1)NC1CCN(c2nccc(OC3CCOCC3)c2Cl)CC1 [Example 21, 1-(1-(3-Chloro-4-((tetrahydro-2H-pyran-4-yl)oxy)pyridin-2-yl)piperidin-4-yl)-3-(pyridin-3-yl)urea] |  |
|  |  | CC(C)OC(=O)N1CCC(Oc2ccnc(N3CCC(NC(=O)Nc4cccnc4)CC3)c2)CC1 [Example 22, Isopropyl 4-((2-(4-(3-(pyridin-3-yl)ureido)piperidin-1-yl)pyridin-4-yl)oxy) piperidine-1-carboxylate] | inhibition at 50 µM: 25 to 50% |
| 50 to 75 |  | N#Cc1c(Oc2ccc(C(F)(F)F)cc2)ccnc1N1CCC(NC(=O)Nc2cccnc2)CC1 [Example 20, 1-(1-(3-Cyano-4-(4-(trifluoro-methyl)phenoxy)pyridin-2-yl)piperidin-4-yl)-3-(pyridin-3-yl) urea] |  |
| ≥ 75 | 100 to 1000 | O=C(Nc1cccnc1)NC1CCN(c2nccc(-c3ccc(OC(F)(F)F)cc3)c2Cl)CC1 [Example 27, 1-(1-(3-Chloro-4-(4-(trifluoro-methoxy)phenyl)pyridin-2-yl)piperidin-4-yl)-3-(pyridin-3-yl)urea] |  |
| 0 to 25 |  | CC(=O)c1ccc(N2CCC(NC(=O)Nc3cccnc3)CC2)nc1 [Example 3, 1-(1-(5-Acetylpyridin-2-yl)piperidin-4-yl)-3-(pyridin-3-yl)urea] |  |
| 0 to 25 |  | C#Cc1ccc(N2CCC(NC(=O)Nc3cccnc3)CC2)nc1 [Example 25, 1-(1-(5-Ethynyl-pyridin-2-yl)piperidin-4-yl)-3-(pyridin-3-yl)urea] |  |
| ≥ 75 | ≤ 100 | O=C(Nc1cccnc1)NC1CCN(c2nccc(Oc3ccc(OC(F)(F)F)cc3)c2Cl)CC1 [Example 10, 1-(1-(3-Chloro-4-(4-(trifluoro-methoxy)phenoxy)pyridin-2-yl)pipcridin-4-yl)-3-(pyridin-3-yl) urea] |  |
| ≥ 75 | 100 to 1000 | O=C(Nc1cccnc1)NC1CCN(c2nccc(Oc3ccc(Cl)c(OC(F)(F)F)c3)c2Cl)CC1 [Example 2, 1-(1-(3-Chloro-4-(4-chloro-3-(trifluoromethoxy)phenoxy)pyridin-2-yl)piperidin-4-yl)-3-(pyridin-3-yl)urea] |  |
| 25 to 50 |  | O=C(Nc1cccnc1)NC1CCN(c2cc(Oc3ccc(C(F)(F)F)cc3)ccn2)CC1 [Example 7, 1-(Pyridin-3-yl)-3-(1-(4-(4-(trifluoromethyl)phenoxy)pyridin-2-yl)piperidin-4-yl)urea] |  |
| ≥ 75 | 100 to 1000 | O=C(Nc1cccnc1)NC1CCN(c2nccc(-c3cccc(OC(F)(F)F)c3)c2Cl)CC1 [Example 26, 1-(1-(3-Chloro-4-(3-(trifluoro-methoxy)phenyl)pyridin-2-yl)piperidin-4-yl)-3-(pyridin-3-yl)urea] |  |
|  |  | O=C(Nc1cccnc1)NC1CCN(c2cc(OCC3CC3)ccn2)CC1 [Example 19] | inhibition at 50 µM: 50 to 75% |
| 25 to 50 |  | O=C(Nc1cccnc1)NC1CCN(c2nccc(OCc3cccc(OC(F)(F)F)c3)c2Cl)CC1 [Example 29, 1-(1-(3-Chloro-4-((3-(trifluoro-methoxy)benzyl)oxy)pyridin-2-yl)piperidin-4-yl)-3-(pyridin-3-yl)urea] |  |
| 25 to 50 |  | O=C(Nc1cccnc1)NC1CCN(c2nccc(OCc3ccc(OC(F)(F)F)cc3)c2Cl)CC1 [Example 28, 1-(1-(3-Chloro-4-((4-(trifluoro-methoxy)benzyl)oxy)pyridin-2-yl)piperidin-4-yl)-3-(pyridin-3-yl)urea] |  |
| ≥ 75 | 100 to 1000 | Cc1c(Oc2ccc(OC(F)(F)F)cc2)ccnc1N1CCC(NC(=O)Nc2cccnc2)CC1 [Example 9, 1-(1-(3-Methyl-4-(4-(trifluoro-methoxy)phenoxy)pyridin-2-yl)piperidin-4-yl)-3-(pyridin-3-yl) urea] |  |
| 25 to 50 |  | O=C(Nc1cccnc1)NC1CCN(c2nccc(Oc3ccc(F)c(OC(F)(F)F)c3)c2Cl)CC1 [Example 5, 1-(1-(3-Chloro-4-(4-fluoro-3-(trifluoromethoxy)phenoxy)pyridin-2-yl)piperidin-4-yl)-3-(pyridin-3-yl)urea] |  |
| 25 to 50 |  | O=C(Nc1cccnc1)NC1CCN(c2nccc(Oc3ccccc3OC(F)(F)F)c2Cl)CC1 [Example 13, 1-(1-(3-Chloro-4-(2-(trifluoro-methoxy)phenoxy)pyridin-2-yl)piperidin-4-yl)-3-(pyridin-3-yl)urea] |  |
| 25 to 50 |  | O=C(Nc1cccnc1)NC1CCN(c2cc(-c3ccc(OC(F)(F)F)cc3)ccn2)CC1 [Example 4, 1-(Pyridin-3-yl)-3-(1-(4-(4-(trifluoromethoxy)phenyl)pyridin-2-yl)piperidin-4-yl)urea] |  |
